In US20250326748A1, “COMPOUNDS AND METHODS FOR MODULATING SPLICING” (REMIX THERAPEUTICS INC., priority 2022, published 2025):
pIC50: −log10 of the molar value. Structures can show the parent of a compound that is named as a salt. Where two headings read alike, the source gives them in different places.

Assays:
HiBiT-tagged MYB protein = experiment: HiBiT protein abundance assay, MYB (K562 HiBiT knock-in); assay type: cell-based, human; conditions: HiBiT knock-in cells, 24 hours
Experimental: Compounds described herein were used to screen for effects on quantitative protein abundance using a HiBit assay system (Promega). Quantitative protein abundance was determined by measuring the protein levels of HiBit-tagged protein targets expressed in cell culture via luminescence using the Nano-Glo HiBiT Lytic Detection System, which uses a split complementation assay format to reconstitute NanoBiT enzyme to generate a luminescent signal. A protein abundance assay was developed such that endogenous protein targets could be modified with the HiBiT peptide tag and their abundance could be assessed after compound treatment. Briefly, K562 cell lines containing a HiBiT-modification were treated with various compounds described herein (e.g., compounds of Formulas (I), or (II)). After treatment for 24 hours, the protein abundance of a specific target was determined by measuring luminescence.
• Promega Nano-Glo HiBiT Lytic Detection System (cat #N3030) • Corning 384-well TC-treated microplates (cat #3570)
Cells were maintained in IMDM with 10% FBS. Before the assay, cells were diluted with […] growth media (IMDM+1% FBS media) and were seeded in a 384-well plate at a density of 10000 cells/well (for each cell line listed in Table 6). Each compound was prepared as a 10-point 3-old serial dilution in DMSO with the top dose at a final concentration of 10 μM in the well. Unmodified K562 cells were added at the previously specified density with DMSO to serve as an assay baseline and positive control (PC) and DMSO only with the respective modified cell lines was added to the negative control (NC) columns. Final DMSO concentration was kept at or below 0.25%. Treated cell plates were placed in an incubator at 37° C. with 5% CO2 for 24 hours. After 24 hours, 25 μL of Complete HiBit Lytic reagent was added to each well at room temperature (e.g. one plate requiring 10 ml Lytic Buffer, 100 μL LgBiT Protein, 200 μL Lytic Substrate), shaken for 5 minutes at 600 RPM, then left to sit for 10 minutes for signal to stabilize before reading on a Spark Cyto plate reader (Tecan) with a 500 ms measurement time.
To determine compound effects on protein abundance of each target in Table 6, the percent response for each respective cell line was calculated at each compound concentration as follows:
For the normalized response at each concentration, a four-parameter logistical regression was fit to the data and the response was interpolated at the 50% value to determine a concentration for protein abundance at 50% (IC50) the untreated control.

MYB mRNA = experiment: Splicing RT-qPCR assay, MYB canonical (CJ) and alternative (AJ) junction mRNA; assay type: cell-based, human; conditions: Homo sapiens; for pIC50: canonical junction mRNA; for AC50: alternative junction mRNA, read-out: MYB AJ (AC50, increase in AJ mRNA)
Summary of the method: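 Read-out: one-step RT-qPCR on crude lysates measuring exon-exon junction isoforms, CJ for the canonical transcript and AJ for compound-induced exon inclusion. Normalization used PPIA for adherent A673 and GAPDH or GUSB for K562. Cells received 11 doses, 3-fold apart, top 10 uM, for 24 h.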

[1] = qPCR panel, read-out: MYB CJ (decrease in CJ mRNA levels, IC50)
[2] = RT-qPCR, A673 or K562 cells, 24 hours treatment
[3] = RT-qPCR, A673 or K562 cells, 24 hours treatment, read-out: MYB CJ (IC50, decrease in CJ mRNA)

SMILES	pIC50 (HiBiT-tagged MYB protein)	pIC50 (MYB mRNA; [1])	AC50 (MYB mRNA; [2])	pIC50 (MYB mRNA; [3])
CN[C@H]1CCN(c2cnc3nc(-c4cc5cn(C)nc5c(C)c4O)ncc3c2)C1 [Compound 120]	> 7.00	> 7.00	< 100 nM	> 7.00
CCNC1CCN(c2cnc3nc(-c4cc5cn(C)nc5c(C)c4O)ccc3c2)C1 (stereo not drawn) [Compound 122, 5-{6-[3-(ethylamino)pyrrolidin-1-yl]-1,8-naphthyridin-2-yl}-2,7-dimethylindazol-6-ol]	> 7.00	> 7.00	< 100 nM	> 7.00
CCN[C@H]1CCN(c2cnc3nc(-c4cc5cn(C)nc5c(C)c4O)ccc3c2)C1 [Compound 123]	> 7.00	> 7.00	< 100 nM	> 7.00
CCN[C@@H]1CCN(c2cnc3nc(-c4cc5cn(C)nc5c(C)c4O)ccc3c2)C1 [Compound 124]	> 7.00	> 7.00	< 100 nM	> 7.00
CN[C@H]1CN(c2cnc3nc(-c4cc5cn(C)nc5c(C)c4O)ccc3c2)C[C@H]1C [Compound 125, 2,7-dimethyl-5-{6-[(3R,4R)-3-methyl-4-(methylamino)379pyrrolidine-1-yl]-1,8-naphthyridin-2-yl}indazol-6-ol]	> 7.00	> 7.00	< 100 nM	> 7.00
CN[C@@H]1CN(c2cnc3nc(-c4cc5cn(C)nc5c(C)c4O)ccc3c2)C[C@H]1C [Compound 126, 2,7-dimethyl-5-{6-[(3R,4S)-3-methyl-4-(methylamino)382pyrrolidine-1-yl]-1,8-naphthyridin-2-yl}indazol-6-ol]	6.00 to 7.00	6.00 to 7.00	100 to 1000 nM	6.00 to 7.00
CN[C@H]1CN(c2cnc3nc(-c4cc5cn(C)nc5c(C)c4O)ccc3c2)C[C@@H]1C [Compound 127, 2,7-dimethyl-5-{6-[(3S,4R)-3-methyl-4-(methylamino)384pyrrolidine-1-yl]-1,8-naphthyridin-2-yl}indazol-6-ol]	> 7.00	> 7.00	100 to 1000 nM	> 7.00
CN[C@@H]1CN(c2cnc3nc(-c4cc5cn(C)nc5c(C)c4O)ccc3c2)C[C@@H]1C [Compound 128]	> 7.00	> 7.00	100 to 1000 nM	> 7.00
CN[C@H]1CN(c2cnc3nc(-c4cc5cn(C)nc5c(C)c4O)ccc3c2)C[C@H]1F [Compound 129, 5-{6-[(3R,4S)-3-fluoro-4-(methylamino)pyrrolidin-1-yl]-1,8-naphthyridin-2-yl}-2,7-dimethylindazol-6-ol]	6.00 to 7.00	6.00 to 7.00	100 to 1000 nM	6.00 to 7.00
CN[C@@H]1CN(c2cnc3nc(-c4cc5cn(C)nc5c(C)c4O)ccc3c2)C[C@@H]1F [Compound 132, 5-{6-[(3S,4R)-3-fluoro-4-(methylamino)pyrrolidin-1-yl]-1,8-naphthyridin-2-yl}-2,7-dimethylindazol-6-ol]	> 7.00	6.00 to 7.00	< 100 nM	6.00 to 7.00
Cn1cc2cc(-c3cnc4nc(N5CCC(NC(C)(C)C)C5)ccc4c3)c(O)cc2n1 (stereo not drawn) [Compound 133, 5-{7-[3-(tert-butylamino)pyrrolidin-1-yl]-1,8-naphthyridin-3-yl}-2-methylindazol-6-ol]	5.00 to 6.00	< 5.00	> 10000 nM	< 5.00
Cn1cc2cc(-c3ccc4cc(N5CCC(NC(C)(C)C)C5)cnc4n3)c(O)cc2n1 (stereo not drawn) [Compound 134, 5-{6-[3-(tert-butylamino)pyrrolidin-1-yl]-1,8-naphthyridin-2-yl}-2-methylindazol-6-ol hydrochloride]	6.00 to 7.00	6.00 to 7.00	100 to 1000 nM	6.00 to 7.00
Cn1cc2cc(-c3ccc4cc(N5CC[C@@H](NCC6CC6)C5)cnc4n3)c(O)c(F)c2n1 [Compound 135, 5-{6-[(3R)-3-[(cyclopropylmethyl)amino]330pyrrolidine-1-yl]-1,8-naphthyridin-2-yl}-7-fluoro-2-methylindazol-6-ol]	> 7.00	> 7.00	< 100 nM	> 7.00
Cn1cc2cc(-c3ccc4cc(N5CC[C@H](NCC6CC6)C5)cnc4n3)c(O)c(F)c2n1 [Compound 136, 5-{6-[(3S)-3-[(cyclopropylmethyl)amino]326pyrrolidine-1-yl]-1,8-naphthyridin-2-yl}-7-fluoro-2-methylindazol-6-ol]	> 7.00	6.00 to 7.00	< 100 nM	6.00 to 7.00
Cc1c(O)c(-c2ccc3cc(N4CCNCC4)cnc3n2)cc2cn(C)nc12 [Compound 137, 2,7-dimethyl-5-[6-(piperazin-1-yl)-1,8-naphthyridin-2-yl]indazol-6-ol]	> 7.00	> 7.00	< 100 nM	> 7.00
Cc1c(O)c(-c2ccc3cc(N4CCC(N(C)C)CC4)cnc3n2)cc2cn(C)nc12 [Compound 138, 5-{6-[4-(dimethylamino)piperidin-1-yl]-1,8-naphthyridin-2-yl}-2,7-dimethylindazol-6-ol]	> 7.00	6.00 to 7.00	100 to 1000 nM	6.00 to 7.00
CNC1CCN(c2cnc3nc(-c4cc5cn(C)nc5c(C)c4O)cc(Cl)c3c2)C1 (stereo not drawn) [Compound 142, 5-{4-chloro-6-[3-(methylamino)351pyrrolidine-1-yl]-1,8-naphthyridin-2-yl}-2,7-dimethylindazol-6-ol]	> 7.00	> 7.00	< 100 nM	> 7.00
Cc1c(O)c(-c2cc(Cl)c3cc(N4CCC(N(C)C)C4)cnc3n2)cc2cn(C)nc12 (stereo not drawn) [Compound 143, 5-{4-chloro-6-[3-(dimethylamino)357pyrrolidine-1-yl]-1,8-naphthyridin-2-yl}-2,7-dimethylindazol-6-ol]	> 7.00	> 7.00	< 100 nM	> 7.00
Cc1c(O)c(-c2cc(C3CC3)c3cc(N4CCNCC4)cnc3n2)cc2cn(C)nc12 [Compound 144, 5-(4-cyclopropyl-6-(piperazin-1-yl)-1,8-naphthyridin-2-yl)-2,7-dimethyl-2H-indazol-6-ol bis(2,2,2-trifluoroacetate)]	> 7.00	6.00 to 7.00	100 to 1000 nM	6.00 to 7.00
Cc1c(O)c(-c2cc(Cl)c3cc(NC4CCNC4)cnc3n2)cc2cn(C)nc12 (stereo not drawn) [Compound 146, 5-[4-chloro-6-(359pyrrolidine-3-ylamino)-1,8-naphthyridin-2-yl]-2,7-dimethylindazol-6-ol]	> 7.00	6.00 to 7.00	< 100 nM	6.00 to 7.00
Cc1c(O)c(-c2cc(Cl)c3cc(N4CCNC(C)C4)cnc3n2)cc2cn(C)nc12 (stereo not drawn) [Compound 147]	6.00 to 7.00	6.00 to 7.00	100 to 1000 nM	6.00 to 7.00
